Like-named read-outs stand apart in the source and are kept apart here.
Experiments:
[1] = tested on: IL-17 release in mouse peritoneal neutrophils; assay: IL-17 release, mouse peritoneal neutrophils, LPS; type: cell-based; conditions: Neutrophil, n = 2, read-out: potency, IL-17 release inhibition
Experimental: The peritoneal neutrophils or macrophages were isolated from C57BL/6 male mice or BALB/c female mice (6–8 wks; 18–22 g) injected with 3% or 4% thioglycollate broth. After 4 h or 4 days, RPMI medium was injected into the peritoneal cavity of mouse and peritoneal lavage was collected. The lavage was pooled and spun at 800 rpm for 10 min. The pellet was re-suspended in 1X Gey’s solution for 5 min followed by PBS wash. In case of neutrophils, the isolated cells were seeded in 48 well plate for 1.5 h. After 1.5 h, the supernatant containing peritoneal neutrophils were collected and centrifuged at 2000 rpm for 10 min and the pellet were re-suspended in 2% RPMI. In case of isolated peritoneal macrophages, the cells were seeded in 48 well plate for 3–4 h followed by PBS wash. Both the neutrophils and macrophages were treated with PCCR-1 in 2% RPMI for 1 h followed by stimulation with 10 µg/ml or 5 µg/ml of LPS for 18 h or 24 h. The supernatant collected for IL-17 estimation by ELISA.

[2] = Single dose intranasal PK study in mice; type: in vivo, mouse
Experimental: A single dose intranasal PK study of PCCR-1 was conducted in male C57 mice at 20 and 50 µg/animal dose. The formulation was prepared in saline with 0.1% v/v tween-80 as the wetting agent. Animals were anesthetized briefly using gaseous isoflurane and oxygen mixture and a 40 µL of the formulation was instilled into both the nostrils (20 µL each) once the animal reached a regular breathing pattern and at pre-determined time points (0.25 h, 0.5 h, 1 h, 2 h, 4 h, 8 h and 24 h), approximately 0.3 mL of blood samples were collected using retro-orbital puncture in suitable anticoagulant (K3 EDTA). The animals were immediately sacrificed and lung was isolated. Blood samples were centrifuged (3000 rpm, 5 min) and plasma was harvested. Lung samples were homogenized in PBS buffer (pH 7.4) and centrifuged to collect the supernatant. Both plasma and lung samples were extracted using methyl t-butyl ether, mixed and centrifuged. The supernatant samples obtained after centrifugation were dried and reconstituted with acetonitrile-ammonium acetate buffer (90:10). The samples were mixed and analyzed in LCMS/MS for the analyte concentrations. Concentration vs time values were subjected to non-compartmental analysis using Phoenix WinNonlin® (Version 6.4) to estimate the appropriate pharmacokinetics parameters.

[3] = Toxicokinetics (blood), 14-day inhalation study in Sprague Dawley rats; type: in vivo, rat; conditions: for half-life / AUC(0-t) / Cmax / Tmax: inhaled or intranasal; for half-life / AUC(0-t) / Cmax: inhalation; for AUC(0-t): read-out: AUC0-tlast, mean (SE); for Cmax: read-out: Cmax, mean (SE)
Experimental: Rats were exposed to PCCR-1 aerosols at 3.4, 10.8 and 32.1 mg/kg/day (delivered dose) for 60 min daily for 14 days using a snout only exposure technique via a modular stainless steel flow past inhalation chamber at indicated doses as mentioned in Table 3. No treatment-related findings noted, including myeloid:erythroid (M:E) ratios in any dose levels except minimal changes in the reticulocytes and adrenal glands.
The TK assessment was done by measuring the concentrations of PCCR-1 in blood.
The toxicology study was done in SD (Sprague Dawley) rats that were exposed to PCCR-1 aerosol for 60 min daily at 3.4, 10.8 and 32.1 mg/kg/day (delivered dose) for 14 days using a snout only exposure technique via a modular stainless steel flow past inhalation chamber. A 60% w/w blend of PCCR-1 in Lactose LH201 was prepared by adding the appropriate amount of PCCR-1 to the appropriate amount of lactose. The estimated delivered doses were derived based on analytical aerosol concentration, and respiratory minute volume calculated based on body weight, exposure duration, and animal body weight (Supplementary section B).

[4] = both sexes, Sprague Dawley, rat, blood, 10.8 mg/kg/day, SD rat blood, 10.8 mg/kg/day, Day 1, Mean
[5] = both sexes, Sprague-Dawley, rat, blood, 3.4 mg/kg/day, SD rat blood, 3.4 mg/kg/day, Day 1, Mean
[6] = both sexes, Sprague-Dawley, rat, blood, 3.4 mg/kg/day, SD rat blood, 3.4 mg/kg/day, Day 14, Mean
[7] = both sexes, Sprague-Dawley, rat, in vivo, 32.1 mg/kg/day, SD rat blood, 32.1 mg/kg/day, Day 1, Mean
[8] = both sexes, Sprague-Dawley, rat, in vivo, 32.1 mg/kg/day, SD rat blood, 32.1 mg/kg/day, Day 14, Mean
[9] = both sexes, Sprague-Dawley, rat, whole blood, 10.8 mg/kg/day, SD rat blood, 10.8 mg/kg/day, Day 14, Mean
[10] = female, Sprague-Dawley, rat, blood, 3.4 mg/kg/day, SD rat blood, 3.4 mg/kg/day, Day 1, Female
[11] = female, Sprague-Dawley, rat, blood, 3.4 mg/kg/day, SD rat blood, 3.4 mg/kg/day, Day 14, Female
[12] = female, Sprague-Dawley, rat, blood, 10.8 mg/kg/day, SD rat blood, 10.8 mg/kg/day, Day 1, Female
[13] = female, Sprague-Dawley, rat, in vivo, 32.1 mg/kg/day, SD rat blood, 32.1 mg/kg/day, Day 1, Female
[14] = female, Sprague-Dawley, rat, in vivo, 32.1 mg/kg/day, SD rat blood, 32.1 mg/kg/day, Day 14, Female
[15] = female, Sprague-Dawley, rat, whole blood, 10.8 mg/kg/day, SD rat blood, 10.8 mg/kg/day, Day 14, Female
[16] = male, Sprague Dawley, rat, blood, 10.8 mg/kg/day, SD rat blood, 10.8 mg/kg/day, Day 1, Male
[17] = male, Sprague-Dawley, rat, blood, 3.4 mg/kg/day, SD rat blood, 3.4 mg/kg/day, Day 1, Male
[18] = male, Sprague-Dawley, rat, blood, 3.4 mg/kg/day, SD rat blood, 3.4 mg/kg/day, Day 14, Male
[19] = male, Sprague-Dawley, rat, in vivo, 32.1 mg/kg/day, SD rat blood, 32.1 mg/kg/day, Day 1, Male
[20] = male, Sprague-Dawley, rat, in vivo, 32.1 mg/kg/day, SD rat blood, 32.1 mg/kg/day, Day 14, Male
[21] = male, Sprague-Dawley, rat, whole blood, 10.8 mg/kg/day, SD rat blood, 10.8 mg/kg/day, Day 14, Male
[22] = rat blood, mid and high dose levels

Compound: CCn1c(C(C)(C)Oc2ccc(F)cc2F)nc2cc(NC(=O)Cc3ccc(S(=O)(=O)CC)cc3)ccc21 [PCCR-1]
- IC50 [1]: 0.245 µM
- quantifiable levels in lungs, time post dose [2]: up to 24 h
- mean lung to plasma AUClast ratio ([2]; both doses (20 and 50 µg)): > 1000
- time of peak lung concentrations post dose ([2]; both doses (20 and 50 µg)): 2 to 4 h
- Kp ([2]; male, C57, mouse, lung/plasma, inhaled or intranasal, 50 ug, both doses (20 and 50 µg), read-out: mean lung to plasma Cmax ratio): > 1000
- half-life ([3]; Sprague-Dawley, in vivo, SD rat blood, 32.1 mg/kg/day, Day 1, Female): 6.9 h
- half-life ([3]; Sprague-Dawley, in vivo, SD rat blood, 32.1 mg/kg/day, Day 1, Male): 6.8 h
- AUC(0-t) [3, 4]: 5090 ng·h/mL
- Cmax [3, 4]: 457 ng/mL
- Tmax ([3]; both sexes, Sprague Dawley, rat, blood, 10.8 mg/kg/day, from start of inhalation dosing, SD rat blood, 10.8 mg/kg/day, Day 1, Mean): 3 h
- half-life ([3]; both sexes, Sprague-Dawley, in vivo, SD rat blood, 32.1 mg/kg/day, Day 1, Mean): 6.8 h
- AUC(0-t) [3, 5]: 982 ng·h/mL
- Cmax [3, 5]: 189 ng/mL
- half-life [3, 6]: 6.4 h
- AUC(0-t) [3, 6]: 2560 ng·h/mL
- Cmax [3, 6]: 215 ng/mL
- Tmax ([3]; both sexes, Sprague-Dawley, rat, blood, 3.4 mg/kg/day, from start of inhalation dosing, SD rat blood, 3.4 mg/kg/day, Day 1, Mean): 3 h
- Tmax ([3]; both sexes, Sprague-Dawley, rat, blood, 3.4 mg/kg/day, from start of inhalation dosing, SD rat blood, 3.4 mg/kg/day, Day 14, Mean): 4 h
- AUC(0-t) [3, 7]: 7440 ng·h/mL
- Cmax [3, 7]: 735 ng/mL
- AUC(0-t) [3, 8]: 12200 ng·h/mL
- Cmax [3, 8]: 1020 ng/mL
- half-life ([3]; both sexes, Sprague-Dawley, rat, whole blood, 10.8 mg/kg/day, SD rat blood, 10.8 mg/kg/day, Day 1, Mean): 5.9 h
- half-life [3, 9]: 5.1 h
- AUC(0-t) [3, 9]: 6750 ng·h/mL
- Cmax [3, 9]: 519 ng/mL
- Tmax ([3]; both sexes, Sprague-Dawley, rat, whole blood, 10.8 mg/kg/day, from start of inhalation dosing, SD rat blood, 10.8 mg/kg/day, Day 14, Mean): 4 h
- tlast ([3]; both, Sprague-Dawley, rat, in vivo, 3.4 mg/kg/day): 25.0 h
- tlast ([3]; both, Sprague-Dawley, rat, in vivo, 10.8 mg/kg/day): 25.0 h
- AUC(0-t) [3, 10]: 1000 ng·h/mL
- Cmax [3, 10]: 202 ng/mL
- AUC(0-t) [3, 11]: 2610 ng·h/mL
- Cmax [3, 11]: 241 ng/mL
- Tmax ([3]; female, Sprague-Dawley, rat, blood, 3.4 mg/kg/day, from start of inhalation dosing, SD rat blood, 3.4 mg/kg/day, Day 1, Female): 3 h
- Tmax ([3]; female, Sprague-Dawley, rat, blood, 3.4 mg/kg/day, from start of inhalation dosing, SD rat blood, 3.4 mg/kg/day, Day 14, Female): 5 h
- half-life [3, 12]: 5.8 h
- AUC(0-t) [3, 12]: 7270 ng·h/mL
- Cmax [3, 12]: 544 ng/mL
- Tmax ([3]; female, Sprague-Dawley, rat, blood, 10.8 mg/kg/day, from start of inhalation dosing, SD rat blood, 10.8 mg/kg/day, Day 1, Female): 3 h
- tlast ([3]; female, Sprague-Dawley, rat, in vivo, 3.4 mg/kg/day): 25.0 h
- tlast ([3]; female, Sprague-Dawley, rat, in vivo, 10.8 mg/kg/day): 25.0 h
- AUC(0-t) [3, 13]: 9470 ng·h/mL
- Cmax [3, 13]: 936 ng/mL
- AUC(0-t) [3, 14]: 16200 ng·h/mL
- Cmax [3, 14]: 1150 ng/mL
- half-life [3, 15]: 5.1 h
- AUC(0-t) [3, 15]: 8050 ng·h/mL
- Cmax [3, 15]: 679 ng/mL
- Tmax ([3]; female, Sprague-Dawley, rat, whole blood, 10.8 mg/kg/day, from start of inhalation dosing, SD rat blood, 10.8 mg/kg/day, Day 14, Female): 3 h
- tlast ([3]; from start of inhalation dosing, SD rat blood, 3.4 mg/kg/day, Day 1, Female): 9.0 h
- tlast ([3]; from start of inhalation dosing, SD rat blood, 3.4 mg/kg/day, Day 1, Male): 9.0 h
- tlast ([3]; from start of inhalation dosing, SD rat blood, 3.4 mg/kg/day, Day 1, Mean): 9.0 h
- tlast ([3]; from start of inhalation dosing, SD rat blood, 32.1 mg/kg/day, Day 1, Female): 25.0 h
- tlast ([3]; from start of inhalation dosing, SD rat blood, 32.1 mg/kg/day, Day 1, Male): 25.0 h
- tlast ([3]; from start of inhalation dosing, SD rat blood, 32.1 mg/kg/day, Day 1, Mean): 25.0 h
- tlast ([3]; from start of inhalation dosing, SD rat blood, 32.1 mg/kg/day, Day 14, Female): 25.0 h
- tlast ([3]; from start of inhalation dosing, SD rat blood, 32.1 mg/kg/day, Day 14, Male): 25.0 h
- tlast ([3]; from start of inhalation dosing, SD rat blood, 32.1 mg/kg/day, Day 14, Mean): 25.0 h
- half-life [3, 16]: 6 h
- AUC(0-t) [3, 16]: 2910 ng·h/mL
- Cmax [3, 16]: 370 ng/mL
- Tmax ([3]; male, Sprague Dawley, rat, blood, 10.8 mg/kg/day, from start of inhalation dosing, SD rat blood, 10.8 mg/kg/day, Day 1, Male): 3 h
- tlast ([3]; male, Sprague Dawley, rat, in vivo, 10.8 mg/kg/day): 25.0 h
- AUC(0-t) [3, 17]: 963 ng·h/mL
- Cmax [3, 17]: 177 ng/mL
- half-life [3, 18]: 6.4 h
- AUC(0-t) [3, 18]: 2500 ng·h/mL
- Cmax [3, 18]: 190 ng/mL
- Tmax ([3]; male, Sprague-Dawley, rat, blood, 3.4 mg/kg/day, from start of inhalation dosing, SD rat blood, 3.4 mg/kg/day, Day 1, Male): 3 h
- Tmax ([3]; male, Sprague-Dawley, rat, blood, 3.4 mg/kg/day, from start of inhalation dosing, SD rat blood, 3.4 mg/kg/day, Day 14, Male): 3 h
- tlast ([3]; male, Sprague-Dawley, rat, in vivo, 3.4 mg/kg/day): 25.0 h
- tlast ([3]; male, Sprague-Dawley, rat, in vivo, 10.8 mg/kg/day): 25.0 h
- AUC(0-t) [3, 19]: 5410 ng·h/mL
- Cmax [3, 19]: 534 ng/mL
- AUC(0-t) [3, 20]: 8230 ng·h/mL
- Cmax [3, 20]: 885 ng/mL
- AUC(0-t) [3, 21]: 5440 ng·h/mL
- Cmax [3, 21]: 359 ng/mL
- Tmax ([3]; male, Sprague-Dawley, rat, whole blood, 10.8 mg/kg/day, from start of inhalation dosing, SD rat blood, 10.8 mg/kg/day, Day 14, Male): 5 h
- AUC in blood accumulation relative to day-1 ([3]; once-daily inhalation for 14 days, except female rats at 10.8 mg/kg/day): 1.5–2.6 fold
- AUC in females higher than males [3, 22]: 1.5–2.5 fold
- Cmax in females higher than males [3, 22]: 1.3–1.9 fold
